# Experimental data as given in paper PMC4489196, “Visualization of regional tau deposits using ^3H-THK5117 in Alzheimer brain tissue” (Acta Neuropathologica Communications, 2015).
# “And” between values parts separate entries of the source, which are not always exact repeats. Equal entries are not always repeated. Where two headings read alike, the source gives them in different places.
# How the values were obtained:
# [1] = biological target: ^3H-THK5117 binding sites in AD temporal cortex homogenates (tau) (Homo sapiens, UniProt P10636); assay: Competition binding against ^3H-THK5117 (3 nM) in temporal cortex homogenates; settings: for Ki: AD temporal cortices
# Method: (§1) Human brain tissues from eight Alzheimer patients and eight controls were obtained from the Netherlands Brain Bank (demographic details in Table 1), and homogenized in PBS containing 0.1 % BSA and protease/phosphatase inhibitor.
# (§2) The specificity and selectivity of ^3H-THK5117 binding was determined by incubating homogenates (0.1 mg tissue) from Alzheimer’s patients’ temporal cortex and hippocampus with ^3H-THK5117 (3 nM), in the presence of THK5117 (10^−5 -10^−13 M), FDDNP (10^−6 -10^−14 M) or BTA-1 (10^−5 -10^−13 M). The results were analyzed with GraphPad Prism software, and the resulting inhibitory constants (Ki) were determined.
# [2] = tested on: ^3H-PIB binding sites (amyloid); assay: Competition between ^3H-PIB and unlabeled THK5117; parameters: species or system Human
# neurofibrillary tangles = neurofibrillary tangles (Homo sapiens, UniProt P10636); assay: THK5117 autofluorescence staining with adjacent AT8 immunostaining; assay type: binding; settings: paraffin hippocampus section of another AD case; confirmed with AT8 on adjacent section
# Text: A paraffin section from hippocampus of a patient with confirmed AD (at death, Braak VI, from the Netherlands brain bank) were quenched and stained with THK5117 following the procedure used by Okamura and colleagues for autofluorescence studies. An adjacent section was labeled with AT8 anti-tau and assessed using the EnVision + System HRP (DAB) (Dako Denmark) detection method.
# [3] = tested on: ^3H-THK5117 binding sites in hippocampus homogenates of one AD case (tau); assay: Competition binding THK5117 against ^3H-THK5117 (3 nM) in hippocampus homogenates; parameters: species or system Human
# Method: as §1, §2
# A. Saturation binding curve and B. Scatchard plot of ^3H-THK5117 (0.04-270nM) for hippocampus homogenates of one AD patient. The plain regression line was determined by GraphPad Prism software and corresponds to the low affinity site. The dotted regression line was determined manually and corresponds to the high affinity site. Corresponding Kd and Bmax values are mentioned below the curve. C. Competition binding curve between THK5117 (10^-13-10^-5M) and ^3H-THK5117 (3nM) for hippocampus homogenates of one AD case. […] Ki Sup Hi = Ki for super high binding site; Ki Hi = Ki for high binding site; Ki Lo = Ki for low binding site.
# [4] = biological target: post-mortem AD temporal brain tissue homogenates (tau) (Homo sapiens, UniProt P10636); assay: Saturation binding assay of ^3H-THK5117 in temporal cortex homogenates; settings: AD temporal lobe homogenates
# Method: as §1
# (§3) Saturation binding assays were carried out with incubation of temporal cortex and hippocampus homogenates (0.1 mg tissue) with ^3H-THK5117 (0.04-270 nM) for 2 h at room temperature. Non-specific binding was determined with 1 μM THK5117. The binding reaction was terminated by filtering through glass fiber filters (pre-soaked for 3 h in 0.3 % polyethylenimine), and rinsing three times with cold binding buffer, and counted with a beta scintillation counter (Beckman Coulter LS6500). The results were analyzed with GraphPad Prism software (version 5.0f for Mac OS X, GraphPad Software, San Diego California USA). The equilibrium dissociation constant (Kd) and maximum number of binding sites (Bmax) were then determined.
# [5] = biological target: hippocampus homogenates of one AD patient (tau) (Homo sapiens, UniProt P10636); assay: Saturation binding assay of ^3H-THK5117 in hippocampus homogenates; settings: one Alzheimer brain
# Method: as §1, §3
# [6] = tested on: brain homogenates from patients with AD (tau); assay: Regional binding studies with ^3H-THK5117 (3 nM) in brain homogenates; parameters: species or system Human; settings: AD cases
# Method: as §1
# Regional binding studies with ^3H-THK5117 were carried out on the brain homogenates from temporal cortex, frontal lobe, parietal lobe, caudate nucleus, hippocampus and cerebellum that were incubated with a single concentration of ^3H-THK5117 (3 nM). Non-specific binding was determined with 1 μM of THK5117. Comparisons between AD and control tissues were made using Mann–Whitney non-parametrical tests, with a threshold for significance of p < 0.05.
# [7] = tested on: frozen brain sections from left hemispheres of AD cases and control case (tau); assay: ^3H-THK5117 autoradiography on large frozen brain hemisphere sections; assay type: binding, Human
# Text: Postmortem brain tissue for autoradiography studies was obtained from three patients with AD that all three had been clinically followed (by A.N.) at the Department of Geriatric Medicine, Karolinska University Hospital, Huddinge, Sweden. The left hemisphere of each brain was frozen in large block sections. The right hemispheres were fixed in formaldehyde, brain tissue was sampled according to the BrainNet Europe protocol and histopathological investigations were undertaken (by I.N.) to confirm AD pathology (see Additional file 1).
# Frozen brain sections ([…]) from the left hemispheres of the three AD cases and the healthy control case were cut with a cryostat at −20 °C and thaw-mounted on chrome alum gelatin-subbed slides following a previously described protocol.
# For each case, frozen sections were dried, pre-incubated for 10 min with PBS + 0.1%BSA, and were then incubated for one hour with 4 nM ^3H-THK5117. The non-specific binding assay was performed on adjacent sections in the presence of 10 μM THK5117. After incubation, sections were washed 3 times for 5 min with cold incubation buffer, dipped into cold distilled water, and allowed to dry for at least 24 h. A Fujifilm BAS-2500 phosphor imaging plate was then exposed to the section, along with a tritium standard, for three days (Larodan Fine Chemical AB, Malmö, Sweden) before being scanned by a phosphoimager Fujifilm BAS-2500.
# Binding of the tracer was quantitatively assessed using MultiGauge Fujifilm software (V3.0). Two independent raters manually segmented different regions of interest, as defined by Duvernoy in “The Human Hippocampus” [19], resulting in regional mean uptake values for each segment. Inter-rater agreement was assessed for all uptake values using a Bland-Altman plot, with limits of agreement set to 95 %. When agreement was satisfactory, regional uptake values from both raters were averaged for subsequent analyses.
# [8] = tested on: tau (AT8) in paraffin sections of anterior and posterior hippocampus; assay: ^3H-THK5117 autoradiography versus AT8 immunostaining on paraffin hippocampus sections; assay type: binding, Human; settings: adjacent paraffin sections, AD case one
# Text: Routine pathology with AT8 has been performed on anterior and posterior hippocampus paraffin sections from the right hemisphere of the three AD cases. Autoradiographies with ^3H-THK5117 on adjacent sections have been performed after deparafinization following the same protocol as cited above.
# ^3H-THK5117 binding sites in AD temporal cortex homogenates (tau), sequence (P10636 623-708 limits assumed): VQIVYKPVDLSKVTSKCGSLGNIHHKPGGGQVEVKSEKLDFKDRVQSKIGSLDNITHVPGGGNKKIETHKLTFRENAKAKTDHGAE
# post-mortem AD temporal brain tissue homogenates (tau), sequence (P10636 623-758 limits assumed): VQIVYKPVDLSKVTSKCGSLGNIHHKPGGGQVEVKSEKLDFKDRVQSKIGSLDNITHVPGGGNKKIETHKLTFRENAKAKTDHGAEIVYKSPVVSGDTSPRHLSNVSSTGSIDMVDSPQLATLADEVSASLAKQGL
# hippocampus homogenates of one AD patient (tau), sequence (P10636 623-695 limits assumed): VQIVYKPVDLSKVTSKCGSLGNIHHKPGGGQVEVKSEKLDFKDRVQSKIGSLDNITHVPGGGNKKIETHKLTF
# neurofibrillary tangles, sequence (P10636 623-758 limits assumed): as the sequence (P10636 623-758 limits assumed) above
structure (smiles),measurement,setting,value
"CNc1ccc(-c2nc3ccccc3s2)cc1 [BTA-1, 2-(4-methylaminophenyl)benzothiazole, reference compound]",Competition with ^3H-THK5117,"[1]; temporal cortex homogenates of four AD cases, ^3H-THK5117 3 nM",No competition
CNc1ccc(-c2ccc3cc(OCC(O)CF)ccc3n2)cc1 (stereo not shown) [THK5117],Ki,"[1]; ^3H-THK5117 3 nM, averaged from ten experiments, read-out: Ki2",16 nM
same,Ki,"[1]; ^3H-THK5117 3 nM, averaged from ten experiments, read-out: Ki3",750 nM
same,Ki,"[1]; potential third site, model constraint >100 for start of curve, ten experiments, read-out: Ki1",0.001 nM
same,Competition between ^3H-PIB and unlabeled THK5117,[2],No competition
same,Autofluorescence staining,neurofibrillary tangles,THK5117 binding on the neurofibrillary tangles
same,Number of binding sites in competition binding curve,[3],two different binding sites
"CNc1ccc(-c2ccc3cc(OCC(O)CF)ccc3n2)cc1 (stereo not shown) [^3H-THK5117, 1-Fluoro-3-((2-(4-([^3H]methylamino)phenyl)quinolin-6-yl)oxy)propan-2-ol]",Kd,"[4]; high affinity site, determined manually from Scatchard plot, averaged from seven experiments, read-out: Kd1",2.2 nM
same,Kd,"[4]; low affinity site (GraphPad Prism fit), read-out: Kd2",24 nM and 23.6 nM
same,Kd,"[5]; high affinity site, read-out: Kd, first binding site",3.1 nM
same,Kd,"[5]; low affinity site, read-out: Kd, second binding site",34 nM
"[3H]CNc1ccc(-c2ccc3cc(OCC(O)CF)ccc3n2)cc1 (stereo not shown) [^3H-THK5117, 1-Fluoro-3-((2-(4-([^3H]methylamino)phenyl)quinolin-6-yl)oxy)propan-2-ol]",Bmax1,"[4]; high affinity site, determined manually from Scatchard plot",250 fmol/mg
same,Bmax2,[4]; low affinity site (GraphPad Prism fit),1416 fmol/mg
same,"Bmax, first binding site",[5]; high affinity site,250 fmol/mg
same,"Bmax, second binding site",[5]; low affinity site,1226 fmol/mg
same,Regional binding of ^3H-THK5117,[6]; caudate nucleus homogenates,198 ± 30 fmol/mg
same,Regional binding of ^3H-THK5117,[6]; cerebellum homogenates,very low
same,Regional binding of ^3H-THK5117,[6]; hippocampus homogenates,198 ± 67 fmol/mg
same,Regional binding of ^3H-THK5117,[6]; parietal lobe homogenates,105 ± 46 fmol/mg
same,Regional binding of ^3H-THK5117,[6]; temporal lobe homogenates,110 ± 47 fmol/mg
same,^3H-THK5117 specific binding,"[7]; Amygdala, AD Case 1",507 fmol/mg
same,^3H-THK5117 specific binding,"[7]; Cingulate gyrus, AD Case 1",292 fmol/mg
same,^3H-THK5117 specific binding,"[7]; Cingulate gyrus, AD Case 2",120 fmol/mg
same,^3H-THK5117 specific binding,"[7]; Cingulate gyrus, AD Case 3",110 fmol/mg
same,^3H-THK5117 specific binding,"[7]; Entorhinal cortex, AD Case 1",713 fmol/mg
same,^3H-THK5117 specific binding,"[7]; Entorhinal cortex, AD Case 2",126 fmol/mg
same,^3H-THK5117 specific binding,"[7]; Entorhinal cortex, AD Case 3",53 fmol/mg
same,^3H-THK5117 specific binding,"[7]; Fusiform gyrus, AD Case 1",585 fmol/mg
same,^3H-THK5117 specific binding,"[7]; Fusiform gyrus, AD Case 2",189 fmol/mg
same,^3H-THK5117 specific binding,"[7]; Fusiform gyrus, AD Case 3",52 fmol/mg
same,^3H-THK5117 specific binding,"[7]; Hippocampus, AD Case 1",693 fmol/mg
same,^3H-THK5117 specific binding,"[7]; Hippocampus, AD Case 2",171 fmol/mg
same,^3H-THK5117 specific binding,"[7]; Hippocampus, AD Case 3",112 fmol/mg
same,^3H-THK5117 specific binding,"[7]; Inferior temporal gyrus, AD Case 1",764 fmol/mg
same,^3H-THK5117 specific binding,"[7]; Inferior temporal gyrus, AD Case 2",125 fmol/mg
same,^3H-THK5117 specific binding,"[7]; Inferior temporal gyrus, AD Case 3",59 fmol/mg
same,^3H-THK5117 specific binding,"[7]; Insular cortex, AD Case 1",423 fmol/mg
same,^3H-THK5117 specific binding,"[7]; Insular cortex, AD Case 2",68 fmol/mg
same,^3H-THK5117 specific binding,"[7]; Insular cortex, AD Case 3",50 fmol/mg
same,^3H-THK5117 specific binding,"[7]; Middle frontal gyrus, AD Case 1",276 fmol/mg
same,^3H-THK5117 specific binding,"[7]; Middle frontal gyrus, AD Case 2",55 fmol/mg
same,^3H-THK5117 specific binding,"[7]; Middle frontal gyrus, AD Case 3",56 fmol/mg
same,^3H-THK5117 specific binding,"[7]; Middle temporal gyrus, AD Case 1",495 fmol/mg
same,^3H-THK5117 specific binding,"[7]; Middle temporal gyrus, AD Case 2",140 fmol/mg
same,^3H-THK5117 specific binding,"[7]; Middle temporal gyrus, AD Case 3",48 fmol/mg
same,^3H-THK5117 specific binding,"[7]; Postcentral gyrus, AD Case 1",312 fmol/mg
same,^3H-THK5117 specific binding,"[7]; Postcentral gyrus, AD Case 2",77 fmol/mg
same,^3H-THK5117 specific binding,"[7]; Postcentral gyrus, AD Case 3",75 fmol/mg
same,^3H-THK5117 specific binding,"[7]; Precentral gyrus, AD Case 1",310 fmol/mg
same,^3H-THK5117 specific binding,"[7]; Precentral gyrus, AD Case 2",32 fmol/mg
same,^3H-THK5117 specific binding,"[7]; Precentral gyrus, AD Case 3",102 fmol/mg
same,^3H-THK5117 specific binding,"[7]; Putamen, AD Case 1",242 fmol/mg
same,^3H-THK5117 specific binding,"[7]; Superior frontal gyrus, AD Case 1",344 fmol/mg
same,^3H-THK5117 specific binding,"[7]; Superior frontal gyrus, AD Case 2",57 fmol/mg
same,^3H-THK5117 specific binding,"[7]; Superior frontal gyrus, AD Case 3",114 fmol/mg
same,^3H-THK5117 specific binding,"[7]; Superior temporal gyrus, AD Case 1",363 fmol/mg
same,^3H-THK5117 specific binding,"[7]; Superior temporal gyrus, AD Case 2",114 fmol/mg
same,^3H-THK5117 specific binding,"[7]; Superior temporal gyrus, AD Case 3",53 fmol/mg
same,^3H-THK5117 specific binding,"[7]; Thalamus, AD Case 1",349 fmol/mg
same,Autoradiography binding in control case,"[7]; control case compared to the three AD cases, 4 nM",Low and regional binding
same,Autoradiography binding pattern versus AT8 immunostaining,[8],identical binding pattern
